Consider two molecules from patent US8642612B2, “Nicotinic desensitizers and methods of selecting, testing, and using them” (Potomac Pharmaceuticals, Inc., priority 2006, dated 2014).

The target in test [1] is T1, rat α3β4 nAChRs (Rattus norvegicus, UniProt P04757+P12392).
T1 construct: expressed in transfected cells; the efflux text says only stably transfected cells
Conditions: 100 pM [3H]EB; published previously (Xiao and Kellar, 2004); cited from earlier work.

Test [2] has as its target T1, rat α3β4 nAChRs. Nature of the test: Inhibition of nicotine-stimulated 86Rb+ efflux, cells expressing rat α3β4 nAChRs. It is filed as cell-based. The procedure: (§1) In brief, cells were plated into 24-well plates coated with poly-D-lysine. […] The cells were then incubated in growth medium (0.5 ml/well) containing ^86Rb^+ (2 μCi/ml) for 4 hour at 37° C. The loading mixture was then aspirated, and the cells were washed four times with 1 ml buffer (15 mM HEPES, 140 mM NaCl, 2 mM KCl, 1 mM MgSO4, 1.8 mM CaCl2, 11 mM Glucose, pH 7.4). One ml of buffer with or without compounds to be tested was then added to each well. After incubation for 2 min, the assay buffer was collected for measurements of ^86Rb^+ released from the cells. Cells were then lysed by adding 1 ml of 100 mM NaOH to each well, and the lysate was collected for determination of the amount of ^86Rb^+ that was in the cells at the end of the efflux assay. Radioactivity of assay samples and lysates was measured by liquid scintillation counting. Total loading (cpm) was calculated as the sum of the assay sample and the lysate of each well. The amount of ^86Rb^+ efflux was expressed as a percentage of […] loaded. […] IC50 values were determined by nonlinear least-squares regression analyses (GraphPad, San Diego, Calif.).

Test [3] concerns the target T2, rat α4β2 nAChRs (Rattus norvegicus, UniProt P09483+P12390).
T2 construct: expressed in transfected cells; host or cells: HEK cells (membrane homogenates)
The note with it: 100 pM [3H]EB; published previously (Xiao and Kellar, 2004); cited from earlier work.

In test [4] the target is native nAChRs from rat forebrain (Rattus norvegicus, UniProt P09483+P12390). Conditions: read-out: Ki Forebrain (rat); 100 pM [3H]EB; published previously (Xiao and Kellar, 2004); cited from earlier work.
For test [5], the target named is T2, rat α4β2 nAChRs. Briefly: [3H]epibatidine competition binding, rat α4β2 nAChRs expressed in HEK cells. The method, then:
(§2) Briefly, cultured cells at >80% confluence were removed from their flasks (80 cm^2) with a disposable cell scraper and placed in 10 ml of 50 mM Tris HCl buffer (pH 7.4, 4° C.). The cell suspension was centrifuged at 10,000×g for 5 min and the pellet was collected. For cells treated chronically with nicotinic agonists during culturing, the pellet was washed two more times by centrifugation in fresh buffer to remove residual drug. […] Bound and free ligands were separated by vacuum filtration through Whatman GF/C filters treated with 0.5% polyethylenimine. The filter-retained radioactivity was measured by liquid scintillation counting. Specific binding was defined as the difference between total binding and nonspecific binding. Data from saturation and competition binding assays were analyzed using Prism 4 (GraphPad Software, San Diego, Calif.).
(§3) All ligand binding assays were carried out using rat or human nAChRs heterologously expressed in human cells or in native rat brain tissues.

In test [6] the target is T1, rat α3β4 nAChRs. Format: cell-based. The note with it: for Agonist Activity α3β4: stimulation of 86Rb+ efflux. The method, then: as §1
(§4) The agonist activities of ligands on nAChRs were assessed by measuring agonist-stimulated ^86Rb^+ efflux from stably transfected cells.

The target in test [7] is T3, human α4β2 nAChRs (Homo sapiens, UniProt P17787+P43681).
T3 construct: expressed in transfected cells; the efflux text says only stably transfected cells
It is filed as cell-based. The note with it: for Agonist Activity α4β2: stimulation of 86Rb+ efflux. The method, then: as §1, §4

For test [8], the target named is T1, rat α3β4 nAChRs. Briefly: [3H]epibatidine competition binding, rat α3β4 nAChRs expressed in HEK cells. The procedure: as §2, with “drug. The cell pellet was then homogenized in 10 ml buffer with a polytron homogenizer (Model PT2100, 12 mm aggregate, 26,000 rpm, 20 seconds) and centrifuged at 36,000 g for 10 min at 4° C. The membrane pellet was resuspended in fresh buffer, and aliquots of the membrane preparation equivalent to 30 to 200 μg protein were used for binding assays.” for “drug.”
as §3

For test [9], the target named is T3, human α4β2 nAChRs. Briefly: biochemical. Format: binding. The procedure:
as §2, with “drug. The cell pellet was then homogenized in 10 ml buffer with a polytron homogenizer (Model PT2100, 12 mm aggregate, 26,000 rpm, 20 seconds) and centrifuged at 36,000 g for 10 min at 4° C. The membrane pellet was resuspended in fresh buffer, and aliquots of the membrane preparation equivalent to 30 to 200 μg protein were used for binding assays.” for “drug.”
as §3

The target in test [10] is T3, human α4β2 nAChRs. Briefly: Inhibition of nicotine-stimulated 86Rb+ efflux, cells expressing human α4β2 nAChRs. Format: cell-based. The procedure: as §1
Where [11] appears, read: added simultaneously with nicotine.

Read-outs that look alike come from different tables or passages of the source.

A word on the Ki: it is a dissociation constant, usually derived from enzyme kinetics or from competition with a known ligand. As a reminder, the IC50 is the concentration that inhibits the measured activity by half. On to `CO[C@H]1CC=C2CCN3CCC4=C(CC(=O)OC4)[C@]23C1` [DHβE, dihydro-β-erythroidine], for which the Ki was 110 µM in test [1], 0.6 ± 0.07 µM in test [3] and 0.13 ± 0.05 µM in test [4]. The IC50 in [2] (added simultaneously with 100 μM nicotine, mean ± SEM of 3 to 7 experiments, read-out: IC50 α3β4 nAChRs, 0 min Pretreatment) is 160000 nM; in test [2] (read-out: IC50 α3β4 nAChRs, 10 min Pretreatment, 10 min preincubation, then 100 μM nicotine, mean ± SEM of 3 to 7 experiments), 130000 nM.

In the case of `OCCCCC#Cc1cncc(OC[C@@H]2CCN2)c1` [Sazetidine-A, 6-(5-(((S)-azetidin-2-yl)methoxy)pyridin-3-yl)hex-5-yn-1-ol], the Ki in test [5] is 0.41 ± 0.16 nM; in [5] (read-out: Equilibrium binding affinity (Ki, nM) α4β2, example tables, species not given), 0.41 nM; in [8], 10 µM; in test [9] it was 0.00064 ± 0.00032 µM. In test [5] (ratio of Ki values), the “Selectivity (Ki ratio: rat α3β4/rat α4β2)” value is 24,000. Also, the “EC50 for activation of channel function (86Rb+ efflux)” value in [6] (rat α3β4 receptors, mean ± SEM, FIG. 2B) is “could not be calculated”; in [7] (human α4β2 receptors, mean ± SEM, FIG. 2A), “could not be calculated”. Besides, the figures for the “Agonist Activity α3β4” value in test [6] and in test [6] (listed as sazetidine-A) were “Not detected” and “no agonist activity”, respectively. In addition, the entries for the “Agonist Activity α4β2” value in test [7] and in test [7] (listed as sazetidine-A) were “Not detected” and “no agonist activity”, respectively. For the same molecule, the “concentration that nearly completely inhibited nicotine activation of α4β2 receptors” value in [10] (10 min preincubation) is reported as around 200 nM. The IC50 was at least 10000 nM in test [10] (Acute Antagonist Potency (IC50(A), nM) α4β2, applied simultaneously with nicotine); 26 nM in test [10] (Desensitization Potency (IC50(D,10 min), nM) α4β2, 10 min pretreatment before nicotine); above 10000 nM in test [10] (IC50 α4β2 nAChRs, 0 min Pretreatment, added simultaneously with 100 μM nicotine, mean ± SEM of 3 to 7 experiments); around 30 nM in test [10] (IC50 α4β2 nAChRs, 10 min Pretreatment, 10 min preincubation, then 100 μM nicotine, mean ± SEM of 3 to 7 experiments); above 10000 nM in test [2] (Acute Antagonist Potency (IC50(A), nM) α3β4, applied simultaneously with nicotine); above 10000 nM in test [2] (Desensitization Potency (IC50(D,10 min), nM) α3β4, 10 min pretreatment before nicotine). For the same molecule, the IC50 in [2] (IC50 α3β4 nAChRs, 0 min Pretreatment, added simultaneously with 100 μM nicotine, mean ± SEM of 3 to 7 experiments) was above 10000 nM; in [2] (IC50 α3β4 nAChRs, 10 min Pretreatment, 10 min preincubation, then 100 μM nicotine, mean ± SEM of 3 to 7 experiments), above 10000 nM. In addition, in test [10] (setting [11]), the “acute antagonist activity, blockade of nicotine-stimulated 86Rb+ efflux, α4β2” value is given as “no antagonist activity”. Further, the “blocking of α3β4 nAChRs” value in test [2] (10 min preincubation) is “ineffective”. Also, the “acute antagonist activity, blockade of nicotine-stimulated 86Rb+ efflux, α3β4” value in test [2] (setting [11]) is “no antagonist activity”.
